Data: US20260315564A1, “THE USE OF TP3 (THYMOPENTIN ANALOG) BY INCREASING THE ACTIVITY AND NUMBER OF T-CELLS INVOLVED IN THE DEFENSE MECHANISM OF THE IMMUNE SYSTEM OF MAMMALS, FOR THE PREVENTION OR TREATMENT OF DISEASES TO EXTEND THE AVERAGE LIFESPAN” (priority 2023, published 2026)
Marks after values point to notes of the source that are not given here. Residues, ends and D or L forms follow the SMILES beside them.

Legend:
[1] = test system: plaque-forming cells (PFC); assay: Number of plaque-forming cells (PFC) in Balb/c nu/nu mice; type: in vivo; conditions: for number of plaque-forming cells (PFC): n = 8/group, control 55.7 (TP5), 53.0 (TP3)
Experimental: (§1) 1.3./Determination of the number of plaque-forming cells (PFC) (using rat spleen cells) The chopped splenocytes were placed in a culture medium (Parker 199) and then shaken with a shaker for 1 minute. The cells were suctioned from the surface of the rapidly settling tissue debris. Red blood cells were removed osmotically. Cell suspensions were adjusted to 107/ml. The cell suspensions were mixed with a 15% BVVT cell suspension in a ratio of 2:1. PFC was determined with the mixture using a modified chamber technique according to Channingham et al., 1966). Before filling the chamber, 50 μl of fresh diluted guinea pig serum (1:20) was added. The chambers (2-2/slide) were incubated (370C 45′) after sealing with paraffin, the formed plaques were counted under a microscope (at 400× magnification) within 2 hours Marker tests related to the rejection reaction of an adult thymus-depleted mouse skin graft 1.4./Rejection of skin transplants in nude mice after treatment with TP fragments (Snell et al., Transplantation 5, 492, 1967).
Mice were treated for 4 weeks 3 times a week (every other day) with TP fragments (10-9, 10-8, 10-7//10-3, 10-2, 10-1 M/animal ip. (Veys et al., 1983) at the end of the treatments ([…]), the mice were immunized (with 0.5 ml 1% BVVT suspension ip. The immune response was expressed in antibody titers as above).

[2] = test system: PFC (plaque-forming cells); assay: PFC (plaque-forming cells) in H. Wistar rats; type: in vivo, Hannover Wistar rats (newborn); conditions: for PFC (plaque-forming cells): 1x/ip, control 53.9 ± 8.8; for PFC (plaque-forming cells) / number of PFC: n = 12; for number of PFC: 9x (3x3 weeks/ip), control 139 ± 12.7
Experimental: Rats (Hannover Wistar) were treated (i.p.) within 6-12 hours after birth. Treatments after birth in a single session or in another examination • on the 7th day after the first treatment; • another group was vaccinated 3 times a week after the first day of […]. treatment • in a subsequent group treated over three weeks (9× in total) (10-3,10-5,10-7//10-9, 10-11,10-12, 10-13 M/animal, i.p). • in the fourth test series, the animals were treated with TP fragments at 0, 1, 2, 4, or 5 days of age. The rats were unanimously immunized on the 14th day after birth (1% BVVT with 0.5 ml cell suspension, i.p.). Immune responses were measured after 7 days on day 21 of the experiment.
Rats (Hannover Wistar) were treated (i.p.) within 6-12 hours after birth. Treatments after birth in a single session or in another examination • on the 7th day after the first treatment; • another group was vaccinated 3 times a week after the first day of treatment. • in a subsequent group, the treatments took place over three weeks (9× in total) (10-3,10-5,10-7//10-9, 10-11,10-12,10-13 M/animal, i.p.). • in the fourth test series, the animals were treated with TP fragments at 0, 1, 2, 4, or 5 days of age. The rats were randomly immunized on the 14th day after birth (1% BVVT with 0.5 ml cell suspension, i.p.). Immune responses were measured after 7 days on day 21 of the experiment. 1.2. Determination of anti-BVVT Ab titers (from rat blood samples ex vivo) • with the haemagglutination method (Takátsy and Fürész, 1955) on 96-well plates (Flow). 50 ul of 0.9% NaCl solution was added to each well. The sera (50 μl) were diluted by half dilution in 12 steps, mixed with 25 pμl 2% BVVT cell suspension, and incubated (1 hour at 37 °C). The hemagglutination titers of the sera are determined. Values expressed in logarithmic values refer to total agglutination.
as §1

[3] = test system: healthy human lymphocytes; assay: E-rosette test, ex vivo on healthy human cells; type: cell-based; set-up: effect ex vivo on healthy human cells (rosette-forming cells): unit not given here; conditions: for effect ex vivo on healthy human cells (rosette-forming cells): control 27.8 (TP5), 30.3 (TP3)
Experimental: Blood from donors was used for our experiments, where the blood samples were used either from animals or human donors. The heparinized blood samples were separated on a (FicolUromiro/Pharmacia-Bracco) gradient (Boyum 1968). 2×10^6 and 107 lymphocytes/ml cells were tested in E-rosette tests, the blood donors were the following animals: • Rat: Hannover Wistar (Richter) newborn rats were used to study the maturation of the immune response. As our mothers, 12 (maximum) randomized newborns were placed (21±10C, humidity: min. 65%) in a test litter. • Guinea pig: Donkin-Hartley (Lati) 250-300 g male animals were included for the DTH reaction test. • 2.3.3/Mice: Mouse strains of different genetic backgrounds were used: CFLP (outbred) from the Lati stock), Balb/c (inbred) and Balb/c nu/nu mice from the SzBC/Szeged stock.
In a preliminary study, the ED75 inhibitory effect of azathioprine was determined (Verhagen et al., 1980) and 500 μg/ml was used during the studies. An equal volume (200 μl) of activityinhibiting and isolated cell suspension and peptides ([…]) were measured. After 1 h (370C) incubation, the cell suspensions received 200 μl of 1% SRBC suspension and then centrifuged (90×g 5 minutes), 400 μl of the supernatant was aspirated.
The number of rosette-forming cells was counted. The activity was determined as percent recovery (R %). […]

DTH reaction (PPD) = assay: Delayed-type hypersensitivity (DTH) reaction in guinea pigs; type: in vivo; conditions: n = 12/group, PPD 217.9
T cells = conditions: Schlesinger et al. 1978, in words; cited from earlier work

## CC(C)[C@H](NC(=O)[C@H](CC(=O)O)NC(=O)[C@H](CCCCN)NC(=O)[C@@H](N)CCCN=C(N)N)C(=O)N[C@@H](Cc1ccc(O)cc1)C(=O)O [TP5] (H-RKDVY-OH)
[1]; 10^-1 M/mouse (M/eger)
  number of plaque-forming cells (PFC): 76.5*
[1]; 10^-2 M/mouse (M/eger)
  number of plaque-forming cells (PFC): 73.0*
[1]; 10^-3 M/mouse (M/eger)
  number of plaque-forming cells (PFC): 67.4
[1]; 10^-3 M/mouse/i.p.
  increase in number of PFC cells: 35%
[1]; 10^-6 M/mouse (M/eger)
  number of plaque-forming cells (PFC): 72.5*
[1]; 10^-7 M/mouse (M/eger)
  number of plaque-forming cells (PFC): 71.0*
[1]; 10^-8 M/mouse (M/eger)
  number of plaque-forming cells (PFC): 9.5
[2]; 10^-6 M/animal
  PFC (plaque-forming cells): 71
  number of PFC: 159
[2]; 10^-7 M/animal
  PFC (plaque-forming cells): 129*
  number of PFC: 203*
[2]; 10^-8 M/animal
  PFC (plaque-forming cells): 148*
  number of PFC: 223*
[2]; 10^-9 M/animal
  PFC (plaque-forming cells): 90*
  number of PFC: 126
[2]; 10^-10 M/animal
  PFC (plaque-forming cells): 76
  number of PFC: 185*
[2]; 10^-11 M/animal
  PFC (plaque-forming cells): 75
  number of PFC: 162
[2]; 10^-13 M/animal
  PFC (plaque-forming cells): 67
  number of PFC: 143
[2]; comparison, in words
  potency TP3 versus TP5 (PFC): TP3=TP5 potency
[3]; 10^-5 mol/l
  effect ex vivo on healthy human cells (rosette-forming cells): 26.9
[3]; 10^-6 mol/l
  effect ex vivo on healthy human cells (rosette-forming cells): 24.4
[3]; 10^-7 mol/l
  effect ex vivo on healthy human cells (rosette-forming cells): 29.4
[3]; 10^-8 mol/l
  effect ex vivo on healthy human cells (rosette-forming cells): 27.1
[3]; 10^-9 mol/l
  effect ex vivo on healthy human cells (rosette-forming cells): 26.1
[3]; 10^-11 mol/l
  effect ex vivo on healthy human cells (rosette-forming cells): 25.5
[3]; 10^-12 mol/l
  effect ex vivo on healthy human cells (rosette-forming cells): 28.4
[3]; 10^-13 mol/l
  effect ex vivo on healthy human cells (rosette-forming cells): 25.9
[3]; 10^-14 mol/l
  effect ex vivo on healthy human cells (rosette-forming cells): 26.1
[3]; in words
  activity on lymphocytes from healthy individuals: ineffective
DTH reaction (PPD); 0.1 mg/kg/s.c.
  DTH reaction, skin redness (bőrpir): 127.7* mm/π
DTH reaction (PPD); 1.0 mg/kg/s.c.
  DTH reaction, skin redness (bőrpir): 158.1 mm/π
DTH reaction (PPD); 20.0 mg/kg/s.c.
  DTH reaction, skin redness (bőrpir): 194.6 mm/π
T cells
  differentiation of T cells: induces the differentiation of T cells
